One series addresses T1, PPARδ-RXRα heterodimer (Homo sapiens, UniProt Q03181).
T1 construct: expressed in transfected cells; host or cells: COS-1
T1 sequence (Q03181 1-441): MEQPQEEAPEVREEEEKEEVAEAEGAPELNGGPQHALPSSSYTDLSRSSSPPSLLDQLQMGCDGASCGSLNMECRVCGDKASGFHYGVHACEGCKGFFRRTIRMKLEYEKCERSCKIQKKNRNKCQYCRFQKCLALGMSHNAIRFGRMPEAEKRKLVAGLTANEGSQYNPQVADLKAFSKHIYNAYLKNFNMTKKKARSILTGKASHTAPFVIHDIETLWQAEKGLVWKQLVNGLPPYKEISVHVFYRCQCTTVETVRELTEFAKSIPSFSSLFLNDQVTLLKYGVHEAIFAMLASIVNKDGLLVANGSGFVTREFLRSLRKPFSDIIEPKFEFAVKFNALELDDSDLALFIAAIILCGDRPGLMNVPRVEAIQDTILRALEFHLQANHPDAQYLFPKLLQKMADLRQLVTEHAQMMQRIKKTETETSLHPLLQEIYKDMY
T1 sequence (P19793 1-462 partner): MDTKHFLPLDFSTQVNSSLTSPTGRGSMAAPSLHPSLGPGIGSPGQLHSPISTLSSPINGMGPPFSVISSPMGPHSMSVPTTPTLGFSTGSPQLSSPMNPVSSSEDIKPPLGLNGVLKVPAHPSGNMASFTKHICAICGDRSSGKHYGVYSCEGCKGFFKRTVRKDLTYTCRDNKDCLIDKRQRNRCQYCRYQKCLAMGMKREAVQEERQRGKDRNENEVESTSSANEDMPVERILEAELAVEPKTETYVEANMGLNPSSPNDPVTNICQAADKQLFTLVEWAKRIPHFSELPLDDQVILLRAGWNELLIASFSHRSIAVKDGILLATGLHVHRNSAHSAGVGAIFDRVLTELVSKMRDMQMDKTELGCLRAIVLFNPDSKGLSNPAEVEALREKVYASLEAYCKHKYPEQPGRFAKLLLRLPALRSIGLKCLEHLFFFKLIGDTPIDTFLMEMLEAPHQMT
Nature of the series: PPARδ-RXRα heterodimer ligand activity, luciferase reporter in COS-1 transformant (Test Example 4). In kind it is cell-based. Conditions: COS-1 transformant (hPPARδ, hRXRα, reporter), 36-48 hours, concentration for 50% of the maximum fold induction. In short, it runs like this: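 COS-1 cells transiently co-transfected with human PPARδ, human RXRα, PPRE-luciferase reporter and pRL-tk, then exposed to compound 36-48 h at 37 °C in DMEM with 0.1% fatty acid-free BSA. Luciferase read as fold induction over untreated; EC50 at 50% of maximal fold induction.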
In general terms: In a reporter assay the amount or activity of a reporter protein is the signal.

The results in this text go back to patent US20060148858A1, “1, 2-Azole derivatives with hypoglycemic and hypolipidemic activity” (priority 2002, published 2006).

Usually EC50 stands for the concentration needed to bring the measured effect to its halfway point. Low values mean an effect from little substance, high ones a need for much substance. Usually melting point stands for the temperature, or range, at which the solid turns liquid. `CCCc1nn(-c2ccc(C(F)(F)F)cn2)cc1CCCOc1c(C)cccc1CC(=O)O` [Example 319, [3-methyl-2-(3-{3-propyl-1-[5-(trifluoromethyl)-2-pyridinyl]-1H-pyrazol-4-yl}propoxy)phenyl]acetic acid] yielded a melting point of 134 to 135 °C. This compound gave an EC50 at PPARδ-RXRα heterodimer of 5.1 nM.
For `COc1cccc(CC(=O)O)c1OCCCc1cn(-c2ccc(C(F)(F)F)cn2)nc1C(C)C` [Example 181, [2-(3-{3-isopropyl-1-[5-(trifluoromethyl)-2-pyridyl]-1H-pyrazol-4-yl}propoxy)-3-methoxyphenyl]acetic acid] the same measures were 142 to 143 °C and 84 nM.
The corresponding values for `CCOc1nn(-c2ccc(C(F)(F)F)cn2)cc1CCCOc1cccc(CC(=O)O)c1` [Example 30, [3-(3-{3-ethoxy-1-[5-(trifluoromethyl)-2-pyridyl]-1H-pyrazol-4-yl}propoxy)phenyl]acetic acid] are 134 to 135 °C and 2.6 nM.
For `CCOc1nn(-c2ccc(C(F)(F)F)cn2)cc1CCCCOc1ccccc1CC(=O)O` [Example 137, [2-(4-{3-ethoxy-1-[5-(trifluoromethyl)-2-pyridyl]-1H-pyrazol-4-yl}butoxy)phenyl]acetic acid] the same measures were 109 to 110 °C and 9.6 nM.
In turn, `CCCc1nn(-c2ccc(C(F)(F)F)cn2)cc1CCCOc1ccc(CCC(=O)O)c(OCC)c1` [Example 98, 3-[2-ethoxy-4-(3-{3-propyl-1-[5-(trifluoromethyl)-2-pyridinyl]-1H-pyrazol-4-yl}propoxy)phenyl]propanoic acid] registered a melting point of 119 to 120 °C. At PPARδ-RXRα heterodimer, the EC50 came out at 1.2 nM.
The corresponding values for `Cc1cccc(CC(=O)O)c1OCCCc1cn(-c2ccc(C(F)(F)F)nn2)nc1C(C)(C)C` [Example 367, [2-(3-{3-tert-butyl-1-[6-(trifluoromethyl)pyridazin-3-yl]-1H-pyrazol-4-yl}propoxy)-3-methylphenyl]acetic acid] are 96 to 97 °C and 150 nM.
On to `CCOc1nn(-c2ccc(C(F)(F)F)cn2)cc1CCCCOc1cc(CCC(=O)O)n(-c2ccccc2)n1` [Example 104, 3-[3-(4-{3-ethoxy-1-[5-(trifluoromethyl)-2-pyridinyl]-1H-pyrazol-4-yl}butoxy)-1-phenyl-1H-pyrazol-5-yl]propanoic acid], for which the melting point fell in the range of 138 to 139 °C. Further, the response at PPARδ-RXRα heterodimer was half-maximal at 7 nM (EC50).
Regarding `Cc1cccc(CC(=O)O)c1OCCCc1cn(-c2ccc(C(F)(F)F)cn2)nc1C1CCCCC1` [Example 316, [2-(3-{3-cyclohexyl-1-[5-(trifluoromethyl)-2-pyridinyl]-1H-pyrazol-4-yl}propoxy)-3-methylphenyl]acetic acid], the melting point was in the range of 184 to 185 °C. The compound also had an EC50 on PPARδ-RXRα heterodimer of 9.9 nM.
For `CCCc1nn(-c2ccc(C(F)(F)F)cn2)cc1CCCOc1c(Br)cccc1CC(=O)O` [Example 237, [3-bromo-2-(3-{3-propyl-1-[5-(trifluoromethyl)-2-pyridinyl]-1H-pyrazol-4-yl}propoxy)phenyl]acetic acid] the same measures were 145 to 146 °C and 6.1 nM.
For `CCOc1nn(-c2ccc(C(F)(F)F)cn2)cc1CCCOc1ccccc1CC(=O)O` [Example 31, (2-(3-{3-ethoxy-1-[5-(trifluoromethyl)-2-pyridyl]-1H-pyrazol-4-yl}propoxy)phenyl]acetic acid] the same measures were 83 to 84 °C and 9.6 nM.
`CCC(CC)c1nn(-c2ccc(Cl)cn2)cc1CCCOc1c(CC(=O)O)cccc1OC` [Example 223, (2-{3-[1-(5-chloro-2-pyridyl)-3-(1-ethylpropyl)-1H-pyrazol-4-yl]propoxy}-3-methoxyphenyl)acetic acid] showed a melting point of 85 to 86 °C. On PPARδ-RXRα heterodimer, this compound returned an EC50 of 97 nM.
On to `CCc1cccc(CC(=O)O)c1OCCCc1cn(-c2ccc(C(F)(F)F)nn2)nc1C(C)C` [Example 245, [3-ethyl-2-(3-{3-isopropyl-1-[6-(trifluoromethyl)pyridazin-3-yl]-1H-pyrazol-4-yl}propoxy)phenyl]acetic acid], for which the melting point fell in the range of 126 to 127 °C. Further, the EC50 on PPARδ-RXRα heterodimer was determined as 130 nM.
`COc1cccc(CC(=O)O)c1OCCCc1cn(-c2ccc(C(F)(F)F)nn2)nc1C(C)C` [Example 274, [2-(3-{3-isopropyl-1-[6-(trifluoromethyl)pyridazin-3-yl]-1H-pyrazol-4-yl}propoxy)-3-methoxyphenyl]acetic acid]: the melting point lay in the range of 92 to 93 °C. For the same compound, the EC50 at PPARδ-RXRα heterodimer was found to be 320 nM.
The corresponding values for `CCC(CC)c1nn(-c2ccc(Br)cn2)cc1CCCOc1c(CC(=O)O)cccc1OC` [Example 351, (2-{3-[1-(5-bromo-2-pyridinyl)-3-(1-ethylpropyl)-1H-pyrazol-4-yl]propoxy}-3-methoxyphenyl)acetic acid] are 94 to 95 °C and 72 nM.
For `CCC(CC)c1nn(-c2ccc(C(F)(F)F)cn2)cc1CCCOc1c(C)cccc1CC(=O)O` [Example 213, [2-(3-{3-(1-ethylpropyl)-1-[5-(trifluoromethyl)-2-pyridyl]-1H-pyrazol-4-yl}propoxy)-3-methylphenyl]acetic acid] the same measures were 125 to 126 °C and 8.3 nM.
In turn, `CCC(CC)c1nn(-c2ccc(C(F)(F)F)cn2)cc1CCCOc1c(CC(=O)O)cccc1OC` [Example 212, [2-(3-{3-(1-ethylpropyl)-1-[5-(trifluoromethyl)-2-pyridyl]-1H-pyrazol-4-yl}propoxy)-3-methoxyphenyl]acetic acid] showed a melting point of 100 to 101 °C. For the same compound, on PPARδ-RXRα heterodimer, the EC50 came out at 42 nM.
The compound `CCOc1nn(-c2ccc(C(F)(F)F)cn2)cc1CCCOc1ccc(CCC(=O)O)c(OC(C)C)c1` [Example 116, 3-[4-(3-{3-ethoxy-1-[5-(trifluoromethyl)-2-pyridinyl]-1H-pyrazol-4-yl}propoxy)-2-isopropoxyphenyl]propanoic acid] gave a melting point of 104 to 105 °C. Besides, at PPARδ-RXRα heterodimer, the EC50 amounted to 0.6 nM.
For `O=C(O)CCc1cc(OCCCc2cn(-c3ccc(C(F)(F)F)cn3)nc2-c2ccccc2)nn1-c1ccccc1` [Example 125, 3-[1-phenyl-3-(3-{3-phenyl-1-[5-(trifluoromethyl)-2-pyridyl]-1H-pyrazol-4-yl}propoxy)-1H-pyrazol-5-yl]propionic acid] the same measures were 175 to 176 °C and 1.5 nM.
For `O=C(O)CCc1cc(OCCCc2cn(-c3ccc(C(F)(F)F)cn3)nc2C2CCCCC2)nn1-c1ccccc1` [Example 189, 3-[3-(3-{3-cyclohexyl-1-[5-(trifluoromethyl)-2-pyridyl]-1H-pyrazol-4-yl}propoxy)-1-phenyl-1H-pyrazol-5-yl]propionic acid] the same measures were 182 to 183 °C and 2.1 nM.
For `CC(C)c1nn(-c2ccc(C(F)(F)F)cn2)cc1CCCOc1cc(CCC(=O)O)n(-c2ccccc2)n1` [Example 24, 3-[3-(3-{3-isopropyl-1-[5-(trifluoromethyl)-2-pyridyl]-1H-pyrazol-4-yl}propoxy)-1-phenyl-1H-pyrazol-5-yl]propionic acid] the same measures were 139 to 140 °C and 9.3 nM.
`CCCc1nn(-c2ccc(C(F)(F)F)cn2)cc1CCCOc1cc(CCC(=O)O)n(-c2ccccc2)n1` [Example 43, 3-[1-phenyl-3-(3-{3-propyl-1-[5-(trifluoromethyl)-2-pyridyl]-1H-pyrazol-4-yl}propoxy)-1H-pyrazol-5-yl]propionic acid] gave a melting point of 149 to 150 °C. Moreover, at PPARδ-RXRα heterodimer, the EC50 stood at 3.7 nM.
The corresponding values for `CCOc1nn(-c2ccc(C(F)(F)F)cn2)cc1CCCOc1cc(CCC(=O)O)n(-c2ccccc2)n1` [Example 42, 3-[3-(3-{3-ethoxy-1-[5-(trifluoromethyl)-2-pyridyl]-1H-pyrazol-4-yl}propoxy)-1-phenyl-1H-pyrazol-5-yl]propionic acid] are 121 to 122 °C and 1.9 nM.
The corresponding values for `CCC(CC)c1nn(-c2ccc(C(F)(F)F)nn2)cc1CCCOc1c(C)cccc1CC(=O)O` [Example 340, [2-(3-{3-(1-ethylpropyl)-1-[6-(trifluoromethyl)pyridazin-3-yl]-1H-pyrazol-4-yl}propoxy)-3-methylphenyl]acetic acid] are 76 to 77 °C and 45 nM.
